Data reported in patent US20120022121A1, “INDOLES, DERIVATIVES AND ANALOGS THEREOF AND USES THEREFOR” (priority 2007, published 2012).
Entries after “also recorded” stand apart in the source; their conditions may differ.

Legend:
[1] = system: MES-SA/DX5 xenografts; assay: In vivo antitumor efficacy, MES-SA/DX5 xenograft; conditions: for TGI (tumor growth inhibition): MES-SA/DX5 xenograft, q2d, i.p.
Description: The control group was treated with vehicle (10% DMSO in PEG300).

[2] = system: PC-3 xenografts; assay: In vivo antitumor efficacy, PC-3 xenograft; conditions: for tumor growth inhibition: PC-3 xenograft, 2 days/week, 4 weeks
[3] = Rotarod performance; assay type: in vivo, ICR mice
Description: The training and rotarod test was conducted as described previously. Briefly, during the training phase for 2 consecutive days (3 trials/day), mice (10 mice/group) were trained to run in a rotarod apparatus without falling at a constant speed (12 rpm) for a maximum of 2 min. For the rotarod performance test, duration of each trial was less than 5 min. […] Tests were performed for 2 weeks (2 days/week). The animals were tested in three trials per day with an intertrial interval of 30 min. Animal performance was recorded as the average elapsed time for the mice to fall off.

[4] = system: PC-3 cells; assay: Cell cycle analysis (PI staining, FACS); assay type: cell-based, human; conditions: for percentage of PC-3 cells in G2M phase: 24 h; for EC50: Homo sapiens, 0.1 nM to 1 μM, read-out: EC50 of cell cycle arrest in G2M phase; for EC50 / percentage of sub-G1 phase: PC-3, 24 h
Description: Cell cycle distribution was determined by propidium iodide (PI) staining. Treated cells were washed with PBS and fixed with 70% ice-cold ethanol overnight. Fixed cells were then stained with 20 μg/mL of PI in the presence of RNase A (300 μg/mL) at 37° C. for 30 min. Cell cycle distribution was analyzed by fluorescence-activated cell sorting (FACS).

[5] = system: MRP1 (over-expressed in the cells); assay: Growth inhibition assay (96 h); assay type: cell-based, human; conditions: human, HEK293 cells over-expressing MRP1 (HEK293-MRP1); HEK293-MRP1, MRP1 over-expressed, 96 h
[6] = system: HEK293-MRP1; assay: Growth inhibition assay (96 h); assay type: cell-based, human; conditions: HEK293-MRP1 vs HEK293-pcDNA3.1
[7] = system: PC-12 cells; assay: PC-12 cell growth inhibition (SRB); assay type: cell-based
Source text: (§1) MTT (3-(4,5-dimethylthiazol-2-yl)-2,5-diphenyltetrazolium bromide) assay was also used for the leukemia cell lines. […] Cells were stained with SRB solution or MTT solution.

[8] = system: Bcl-2; assay: Western blot of Bcl-2 phosphorylation; assay type: cell-based, human; conditions: PC-3 cells, 24 h, immunoblot of pBcl-2
Description: (§2) Treated cells were lysed in cold lysis buffer (20 mM Tris-HCl, pH 7.5, 150 mM NaCl, 1 mM Na2 EDTA, 1% Triton x-100, and freshly added Na3VO4 (2 mM), NaF (20 mM) and complete protease inhibitor cocktail). For each sample, an aliquot (20 to 40 μg) of total protein was loaded and run on a SDS-Page gel. Protein was transferred to nitrocellulose membranes (Bio-Rad Laboratories, Hercules, Calif.), blocked with 5% non-fat milk, incubated with primary antibody overnight at 4° C., and then incubated with secondary antibody at rt for 1 h. ECL™ (GE Healthcare Bio-Sciences Corp., Piscataway, N.J.) was used for detection. The band intensity was measured by densitometry using TotalLab TL100 Software v2006 (Nonlinear Dynamics Ltd., Newcastle upon Tyne, UK).

[9] = system: solid tumor cell lines; assay: Growth inhibition, range over the cell lines of Table 2; assay type: cell-based; conditions: Homo sapiens, read-out: IC50 values, range over the cell lines tested
Description: Cell viability (LNCaP, PC-3 prostate, DU145, PPC-1, and TSU-Pr1 prostate cancer cell lines, HT-29 colon cancer cell line, and MCF-7 breast cancer cell line) was quantitated using the sulforhodamine B (SRB) assay after 96 h coincubation with different concentrations of compound in 96-well plates. Cell viability of leukemia cells (K562 and doxorubicin-resistant K562/Dox) was quantitated by MTT assay after 96 h coincubation with different concentrations of compound in 96-well plates. Drug-induced apoptosis was determined by anti-histone ELISA assay and DNA laddering. Cell cycle progression was assessed by propidium iodide staining and fluorescence-activated cell sorting (FACS) analysis. In vitro tubulin polymerization assay was determined by CytoDYNAMIX ScreenTM3 (CDS-03) kits according to the manufacturer's instructions. Anti-apoptosis protein (Bcl-2 and Bcl-xl) and pro-apoptosis protein (Bax) were examined in LNCaP and PC-3 after 24 h incubation with different concentrations of compound 13 by Western blot assay. In vivo PC-3 xenograft studies were conducted by i.v. dosing of 50 mg/kg, 100 mg/kg and 150 mg/kg for 2 weeks.
Cells were plated in 96-well plates at a density of 800-5,000 cells/well, depending on the cell line, in their required growth media containing 10% fetal bovine serum. […]

[10] = system: MES-SA/DX5; assay: Growth inhibition assay (96 h); assay type: cell-based, human; conditions: for resistance factor (ratio of IC50 resistant subline to parental cell line): MES-SA/DX5 vs MES-SA (P-gp)
Source text: as §1

[11] = system: HEK293-pcDNA3.1; assay: Growth inhibition assay (96 h); assay type: cell-based, human; conditions: Homo sapiens, HEK293-pcDNA3.1 (control for MRP)
Source text: as §1

[12] = system: PC-3 cells; assay: DNA fragmentation by cell death detection ELISA (anti-histone); assay type: cell-based; conditions: Homo sapiens, 24 h, read-out: EC50 of increase of enrichment factor (DNA fragmentation)
Description: Apoptosis was measured by quantitation of cytoplasmic histone-associated DNA fragments using the cell death detection ELISA kit. Cells were seeded in 6-well plates and exposed to 68 for 24 h at different concentrations. The quantitation of DNA fragments was performed according to the manufacturer's instructions. Results are expressed as the enrichment factor (i.e., the ratio of the optical density in treated cells to the optical density in control cells).

[13] = system: cyclin B1, Cdc25C, Cdc2; assay: Western blot of G2-M regulators; assay type: cell-based, human; conditions: PC-3 cells, 24 h treatment
Description: as §2

Structure (SMILES): COc1cc(C(=O)c2cccc(-c3cc4ccccc4[nH]3)c2)cc(OC)c1OC [Compound 68, [3-(1H-Indol-2-yl)-phenyl]-(3,4,5-trimethoxy-phenyl)-methanone]
- general toxicity and body weight loss ([1]; MES-SA and MES-SA/DX5 xenograft mice, 5 or 10 mg/kg): did not induce any general toxicity or significant body weight loss
- TGI (tumor growth inhibition) ([1]; 5 mg/kg): 47%
- TGI (tumor growth inhibition) ([1]; 10 mg/kg): 76%
- tolerability ([2]; PC-3 xenograft mice, 5 and 10 mg/kg twice weekly): well tolerated
- tumor growth inhibition ([2]; 5 mg/kg i.p.): 36%
- tumor growth inhibition ([2]; 10 mg/kg i.p.): 68%
- rotarod performance ([3]; 10 mg/kg i.p. q2d, 2 weeks, vs vehicle control): did not show impaired rotarod performance; also recorded: no loss of function
- percentage of PC-3 cells in G2M phase ([4]; 10 nM (control 19)): 24%
- percentage of PC-3 cells in G2M phase ([4]; 50 nM (control 19)): 63%
- percentage of PC-3 cells in G2M phase ([4]; 100 nM (control 19)): 77%
- EC50 [4]: 34 nM
- percentage of sub-G1 phase ([4]; 10 nM (control 0.2)): 0.5%
- percentage of sub-G1 phase ([4]; 50 nM (control 0.2)): 0.7%
- percentage of sub-G1 phase ([4]; 100 nM (control 0.2)): 1.3%
- IC50 at 96 h [5]: 30.4 ± 6.4 nM
- resistance factor (ratio of IC50 resistant subline to parental cell line) [6]: (1.3)
- IC70 value in PC-12 cell growth inhibition [7]: 50 nM
- concentration that induced phosphorylation (Ser70) of Bcl-2 [8]: 50 nM
- IC50 [9]: 18 to 31 nM
- IC50 ([10]; Homo sapiens, MES-SA/DX5, P-gp over-expressed, 96 h): 32.3 ± 8.2 nM
- resistance factor (ratio of IC50 resistant subline to parental cell line) [10]: (1.0)
- IC50 [11]: 23.8 ± 1.7 nM
- EC50 [12]: 42.7 nM
- concentration at which cyclin B1 accumulation, Cdc25C (Ser216) and Cdc2 dephosphorylation were observed [13]: higher than 50 nM

Structure (SMILES): O=C(c1cccc(-c2cc3ccccc3[nH]2)c1)c1cc2ccccc2[nH]1 [Compound 13, (1H-indol-2-yl)-[3-(1H-indol-2-yl)phenyl]methanone]
- IC50 [9]: 34 to 138 nM

Structure (SMILES): CC[C@]1(O)C[C@@H]2CN(CCc3c([nH]c4ccccc34)[C@@](C(=O)OC)(c3cc4c(cc3OC)N(C)[C@H]3[C@@](O)(C(=O)OC)[C@H](OC(C)=O)[C@]5(CC)C=CCN6CC[C@]43[C@@H]65)C2)C1 [Vinblastine]
- TGI (tumor growth inhibition) ([1]; 0.5 mg/kg): 24%
- rotarod performance ([3]; 0.5 mg/kg i.p. q2d, day 4 to day 14): impaired performance
- mean time on the rotating rod ([3]; 0.5 mg/kg i.p. q2d, end of 2 weeks (vehicle 151 s)): 121 s
- EC50 [4]: 7 nM
- IC50 at 96 h [5]: 24.3 ± 2 nM
- resistance factor (ratio of IC50 resistant subline to parental cell line) [6]: (4.9)
- resistance factor (ratio of IC50 resistant subline to parental cell line) ([6]; listed as vinblastine): 4.9
- IC70 value in PC-12 cell growth inhibition [7]: 5 nM
- concentration that induced phosphorylation (Ser70) of Bcl-2 [8]: 5 nM
- resistance factor (ratio of IC50 resistant subline to parental cell line) [10]: (20)
- IC50 [11]: 5 ± 1 nM
- EC50 [12]: 8.1 nM
